One data set concerns mice. Nature of the data set: Toxicity in mice, oral gavage. It counts as in vivo.
The target of a further data set is T1, Arf1 (Homo sapiens, UniProt P84077).
T1 construct: Active Arf1 was detected by using The Thermo Scientific Pierce Active Arf1 Pull-Down and Detection Kit (Cat #16121) with liver cancer Huh-7 cell lysate; endogenous in cells; host or cells: Huh-7 liver cancer cells (lysate)
The experiment in a line: Active Arf1 Pull-Down and Detection Kit (GTP-bound Arf1). It counts as biochemical. As to conditions: liver cancer Huh-7 cell lysate; FIG. 1. The text has this:
Active Arf1 was detected by using The Thermo Scientific Pierce Active Arf1 Pull-Down and Detection Kit (Cat #16121) with liver cancer Huh-7 cell lysate. It is a complete kit for selective enrichment and detection of GTP-bound Arf1 GTPase through specific protein interaction with the GGA3 protein-binding domain (FIG. 1).

The subject of data set [1] is normal human bone marrow hematopoietic stem cells (HSCs). Nature of the data set: Toxicity on normal hematopoietic stem cells.
Text: (§2) We tested 10 reported Arf1 inhibitors (Bill et al., 2011; Boal et al., 2010; Feng et al., 2004; Newton et al., 2006; Ohashi et al., 2012; Sáenz et al., 2009; Sorieul et al., 2011; Viaud et al., 2007), including brefeldin A (BFA), Golgicide A (GCA), LM11, Secin16, Secin H3, Secin B7, Exo1, Exo2, LG8, and LG18, on Drosophila stem cell tumors and normal human bone marrow hematopoietic stem cells (HSCs).
In data set [2] the test system is liver tumors in MYC-ON mice. The experiment in a line: MYC-ON liver tumor model. As to conditions: gavage, 5 per week for 4 weeks, analyzed 10 weeks later. It counts as in vivo. The text has this:
We used the Tet system to generate transgenic mice conditionally expressing the myc pro-oncogene in hepatocytes, […] myc/lap TTA (lt2-myc) (shachaf et al., 2004). We crossed tre-myc mice with a transgenic line, lap TTA. in which the liver activator protein (LAP) promoter drives the expression of tetracycline trans-activator protein (TTA) in hepatocytes. We confirmed this by discontinuing the feeding of doxycycline (myc-ON) activated myc transgene expression in 3-week-old mice. Subsequently. all transgenic mice overexpressing myc succumbed to liver tumors with a mean latency to tumor onset of 12 weeks, as previously reported (shachaf et al., 2004). In this lap TTA/tet-off myc conditional transgenic mouse model, myc overexpression in adult mice reproducibly induces liver cancer, similar to hepatocellular carcinoma and/or hepatoblastoma. The transgenic tumor invades the entire liver locally and is frequently associated with malignant peritoneal effusions that spread to the thoracic cavity by metastasis and invade the lung parenchyma.
For the mouse liver tumor model, mating cages and weaning cages were administrated by a grain based rodent diet (Bio-Serv. Cat #14-727-450) containing 200 mg/kg doxycycline, and the mice were induced tumors at 6 weeks of age, by changing to a normal diet. Mice were divided into three groups, control, Du 101 treated and du102 treated. The control group was given 100 by gavage using a feeding tube 100 μl/10 g body weight (BW) 20% DMSO+80% corn oil. Du 101 treated groups were treated with 25 mg/ml Du 101. The stock solution was diluted 1:4 with corn oil to make the working solution. Dul02 treatment groups were treated with 25 mg/ml du102 stock solution diluted 1:4 with corn oil to make working solutions. The mixed working solution was administered to mice by gavage using a feeding tube. Starting from the second week of myc-0n, 5 injections per week ([…]) were given for 4 weeks, mice were monitored every 2 days, and 10 weeks later mice were euthanized and analyzed for tumor growth.
For the myc-on liver tumor model, antibodies were i.p. Mg/kg) was injected once a week for 5 consecutive weeks, the first Doxycycline was discontinued weekly after injection. Antibodies used to treat mice were as follows: anti-CD4 (clone GK1.5, BioXcell, Cat #BE0003-1), anti-CD8 a (clone 2.43, BioXcell, Cat #BE0061) Or […] rat IgG (bioxcell, cat #be0094) isotype control antibody. From the second week of myc-on initiation lasted for 4 weeks, Du 102 and DMSO were administered by gavage needle as described above, mice were monitored every 2 days, and 10 weeks later mice were euthanized and analyzed for tumor growth.
For the myc-on liver tumor model, antibodies were i.p. Injection once a week for 5 weeks, and doxycycline was discontinued weekly after the first injection. Antibodies used to treat mice were as follows: 100 ug/mouse Armenian hamster anti mouse PD1 (J43, bioxcell, cat #be0033-2) and 100 ug/mouse Armenian hamster isotype IgG (bioxcell. cat #bp0091) was used as controls. For 4 weeks from the second week of myc-on, Du 102 and DMSO were administered by gavage needle as described above, mice were monitored every 2 days. and 10 weeks later mice were euthanized and analyzed for tumor growth. Coadministration of anti-PD-1 antibodies may allow the use of lower, less toxic doses of du102, thus avoiding known side effects.

A further data set has as its system tumor cells. The experiment in a line: Tumor cytotoxicity experiments in vitro (all lines, general statements). The format is cell-based. As to conditions: HT29, LoVo, Huh7, H460, A549; FIG. 2-7. The text has this:
(§1) In different tumor cytotoxicity experiments in vitro (FIG. 2-FIG. 7), including colorectal cancer cell lines HT29 and LoVo cells, liver cancer cell Huh7, lung cancer cells H460 and A549, the arf1 inhibitor could all inhibit tumor cell growth (FIG. 2-FIG. 6), and there was a dose-dependent manner (FIG. 7).

For data set [3], the system named is Drosophila stem cell tumors. Nature of the data set: Drosophila screen (stem cell / intestinal tumors). The format is in vivo.
Text: as §2
Data set [4] concerns colorectal cancer cell line LoVo. Nature of the data set: In vitro cell line screening, LoVo. It counts as cell-based.
Text: as §1

In another data set the test system is lung cancer cells H460. Nature of the data set: In vitro cell line screening, H460. It counts as cell-based.
Text: as §1

A further data set has as its system liver cancer cell Huh7. The experiment in a line: In vitro cell line screening, Huh7. It counts as cell-based.
Text: as §1

In data set [5] the test system is colorectal cancer cell line HT29. Nature of the data set: In vitro cell line screening, HT29. It counts as cell-based.
Text: as §1

A further data set relates to lung cancer cells A549. Nature of the data set: In vitro cell line screening, A549. It counts as cell-based.
Text: as §1

The results in this text go back to US20240382487A1, “NOVEL COPI/ARF1-LIPOLYSIS PATHWAY INHIBITOR AND COMPOUND FOR ERADICATING CANCER STEM CELLS AND INDUCING DAMP-MEDIATED ANTI-TUMOR IMMUNE RESPONSE” (FUDAN UNIVERSITY, priority 2020, published 2024).

The structures appear in SMILES notation.

T1 sequence (P84077 whole entry): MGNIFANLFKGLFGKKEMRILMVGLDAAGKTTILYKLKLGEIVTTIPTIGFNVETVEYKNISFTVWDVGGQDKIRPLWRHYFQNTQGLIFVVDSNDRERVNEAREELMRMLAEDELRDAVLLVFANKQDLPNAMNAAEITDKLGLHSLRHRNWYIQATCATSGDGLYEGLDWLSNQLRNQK

Consider `C(=N\Nc1ncnc2sc3c(c12)CCCC3)/c1ccc2[nH]ccc2c1` [Du 101], for which the toxic effects entry with mice (oral gavage for 60 consecutive days, FIG. 10) is “induced toxic effects”; in the data set on mice (up to 50 mg/kg by oral gavage for 21 consecutive days, FIG. 9) it was “no toxic effects were observed”. Further, on Arf1, the “inhibition of arf1 activation” value is given as “potent inhibitors”. Further, the “toxicity (killing normal HSCs)” value in data set [1] was “relatively low toxicity”. This compound also had a liver tumor numbers in data set [2] of 44.7. Further, the “tumor suppressive / inhibitory effect on tumor cells” value in the data set on tumor cells is “Some Tumor Suppressive Effect”. Also, the “in vivo tumor suppressive effects” value in data set [3] (Drosophila screen, FIG. 8) was “good in vivo tumor suppressive effects”. In addition, the “killing Drosophila stem cell tumors” value in data set [3] (in vivo) was “effective”.

As for `Cc1ccc(/C=C/Cc2cccc3c2C2=C(CCCC2)C3)cc1C` [compound 104], the tumor suppressive effect entry (in [4]; in the data set with lung cancer cells H460; in the data set with liver cancer cell Huh7; in [5]; in the data set on lung cancer cells A549) was “effective tumor suppressive effects” throughout.

For `C1=Cc2cc(/C=C/Cc3cccc4c3C3=C(CCCC3)C4)ccc2C1` [compound 107], the tumor suppressive effect entry (in data set [4]; with lung cancer cells H460; in the data set with liver cancer cell Huh7; in data set [5]; with lung cancer cells A549) was “effective tumor suppressive effects” in each case.

Turning to `C(=C\c1ccccc1)/Cc1cccc2c1C1=C(CCCCCC1)C2` [compound 109], the tumor suppressive effect result (in [4]; with lung cancer cells H460; with liver cancer cell Huh7; in data set [5]; in the data set on lung cancer cells A549) was “effective tumor suppressive effects” in each case.
